Data taken from US12655110B2, “Method of producing a crystalline form of sodium 2-[(4S)-8-fluoro-2-[4-(3- methoxyphenyl)piperazin-1-yl]-3-[2-methoxy-5-(trifluoromethyl)phenyl]-4H-quinazoline-4-yl]acetate trihydrate” (A1C246 AG & CO. KG, priority 2020, dated 2026).

Key:
Format in all cases: physicochemical
[1] = Thermogravimetric analysis (TGA), decomposition; conditions: heated under nitrogen at 10° C./min from 30° C. to 300° C.
Experimental: Thermogravimetric analysis (TGA): Thermogravimetric analyses were recorded in a Mettler Toledo TGA/SDTA851 with a balance MT1 type. Approximately 3-4 mg of sample were weighed (using a MX5 Mettler Toledo microbalance) into 40 μL aluminium crucibles with a pinhole lid and heated under nitrogen (10 mL/min) at 10° C./min from 30° C. to 300° C. Programs used: Data collection and evaluation with software STARe.

[2] = Solid form stability in a drying process; conditions: drying process (>60° C.)
Hygroscopicity (DVS) = conditions: for PXRD after DVS experiment (solid form): after hygroscopicity (DVS) experiment

| Structure (SMILES) | TGA: decomposition occurs at [1] | Solid form change in a drying process [2] | Hygroscopicity (DVS): water adsorption (Hygroscopicity (DVS); 10-80% RH) | Hygroscopicity (DVS): water adsorption (Hygroscopicity (DVS); 10-90% RH) | PXRD after DVS experiment (solid form) (Hygroscopicity (DVS)) |
| --- | --- | --- | --- | --- | --- |
| CCO.COc1cccc(N2CCN(C3=Nc4c(F)cccc4[C@H](CC(=O)[O-])N3c3cc(C(F)(F)F)ccc3OC)CC2)c1.O.[Na+] [Ethanol/Water Solvate, sodium 2-[(4S)-8-fluoro-2-[4-(3-methoxyphenyl)piperazin-1-yl]-3-[2-methoxy-5-(trifluoromethyl)phenyl]-4H-quinazolin-4-yl]acetate ethanol monohydrate] | Decomposition occurs at ca. 250 °C | The solid turns into the amorphous | 5.3% water adsorption (10-80% RH) | 3.2% water adsorption (10-90% RH) | PXRD after experiment: trihydrate |
| COc1cccc(N2CCN(C3=Nc4c(F)cccc4[C@H](CC(=O)O)N3c3cc(C(F)(F)F)ccc3OC)CC2)c1 [Trihydrate, sodium 2-[(4S)-8-fluoro-2-[4-(3-methoxyphenyl)piperazin-1-yl]-3-[2-methoxy-5-(trifluoromethyl)phenyl]-4H-quinazolin-4-yl]acetate trihydrate] | Decomposition occurs at ca. 250 °C | The solid turns into the amorphous | 4.1% water adsorption (10-80% RH) | 8.6% water adsorption (10-90% RH) | No PXRD changes after experiment |
